Assay results from ChEMBL document CHEMBL4325925, “Privileged Structures and Polypharmacology within and between Protein Families” (ACS Med Chem Lett, 2018).

How the values were obtained:
Pirin = target: T1, Pirin (Homo sapiens, UniProt O00625); assay: Displacement of 6-amino-9-(2-((4-((2-((6-((5-(2,3-dihydrobenzo[b][1,4]dioxine-6-carboxamido)-2-methylphenyl)carbamoyl)quinolin-2-yl)oxy)ethyl)amino)-4-oxobutyl)(methyl)carbamoyl)phenyl)-3-imino-3H-xanthene-4,5-disulfonic acid from pirin (unknown origin) by fluorescence polarization assay
T1 sequence (O00625 whole entry): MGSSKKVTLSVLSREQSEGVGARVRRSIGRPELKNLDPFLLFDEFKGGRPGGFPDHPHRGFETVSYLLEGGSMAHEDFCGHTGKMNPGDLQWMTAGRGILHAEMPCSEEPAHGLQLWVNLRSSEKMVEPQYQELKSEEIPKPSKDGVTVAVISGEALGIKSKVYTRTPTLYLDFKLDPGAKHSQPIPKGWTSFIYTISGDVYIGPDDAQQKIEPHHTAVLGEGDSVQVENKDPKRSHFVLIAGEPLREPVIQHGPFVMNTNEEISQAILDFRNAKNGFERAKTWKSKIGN

[1] = target: Serine/threonine-protein kinase B-raf (Homo sapiens, UniProt P15056); assay: Inhibition of recombinant human full length GST-tagged BRAF expressed in baculovirus expression system
[2] = target: Homeodomain-interacting protein kinase 2 (Homo sapiens, UniProt Q9H2X6); assay: Inhibition recombinant human HIPK2 (165 to 564 residues) after 5 mins in presence of [33P] ATP by Topcount method
[3] = target: T2, Serine/threonine-protein kinase TAO1 (Homo sapiens, UniProt Q7L7X3); assay: Inhibition recombinant human TAOK1 (1 to 356 residues) after 5 mins in presence of [33P] ATP by Topcount method
T2 sequence (Q7L7X3 whole entry): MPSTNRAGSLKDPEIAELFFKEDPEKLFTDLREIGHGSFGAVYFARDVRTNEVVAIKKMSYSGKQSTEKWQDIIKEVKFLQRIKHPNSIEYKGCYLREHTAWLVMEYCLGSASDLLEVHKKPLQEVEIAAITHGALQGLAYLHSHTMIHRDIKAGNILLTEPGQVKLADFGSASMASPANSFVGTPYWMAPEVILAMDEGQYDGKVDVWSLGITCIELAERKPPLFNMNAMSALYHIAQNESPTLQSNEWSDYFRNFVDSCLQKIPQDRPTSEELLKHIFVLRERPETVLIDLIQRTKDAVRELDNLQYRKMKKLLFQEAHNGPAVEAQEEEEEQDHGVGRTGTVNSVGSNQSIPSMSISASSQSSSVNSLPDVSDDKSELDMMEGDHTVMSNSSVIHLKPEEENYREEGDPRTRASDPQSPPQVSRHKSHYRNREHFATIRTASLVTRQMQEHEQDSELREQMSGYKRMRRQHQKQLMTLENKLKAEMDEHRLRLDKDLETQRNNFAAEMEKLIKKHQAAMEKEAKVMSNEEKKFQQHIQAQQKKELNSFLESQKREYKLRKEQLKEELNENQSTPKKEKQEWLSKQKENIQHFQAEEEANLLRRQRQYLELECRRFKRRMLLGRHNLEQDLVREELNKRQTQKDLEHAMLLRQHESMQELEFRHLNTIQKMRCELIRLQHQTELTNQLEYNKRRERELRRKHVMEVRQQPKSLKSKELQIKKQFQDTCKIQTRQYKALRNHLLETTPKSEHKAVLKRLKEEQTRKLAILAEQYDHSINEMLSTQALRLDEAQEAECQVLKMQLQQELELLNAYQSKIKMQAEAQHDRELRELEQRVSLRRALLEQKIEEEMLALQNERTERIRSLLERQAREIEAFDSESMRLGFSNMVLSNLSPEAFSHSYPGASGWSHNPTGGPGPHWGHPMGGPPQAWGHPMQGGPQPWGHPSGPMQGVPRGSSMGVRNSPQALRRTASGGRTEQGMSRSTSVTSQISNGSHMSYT

[4] = target: Serine/threonine-protein kinase B-raf (Homo sapiens, UniProt P15056, V600E); assay: Inhibition of recombinant human GST-tagged BRAF V600E mutant expressed in baculovirus expression system
Chain of Serine/threonine-protein kinase B-raf (Homo sapiens, UniProt P15056, V600E) (P15056 2-766 V600E limits assumed): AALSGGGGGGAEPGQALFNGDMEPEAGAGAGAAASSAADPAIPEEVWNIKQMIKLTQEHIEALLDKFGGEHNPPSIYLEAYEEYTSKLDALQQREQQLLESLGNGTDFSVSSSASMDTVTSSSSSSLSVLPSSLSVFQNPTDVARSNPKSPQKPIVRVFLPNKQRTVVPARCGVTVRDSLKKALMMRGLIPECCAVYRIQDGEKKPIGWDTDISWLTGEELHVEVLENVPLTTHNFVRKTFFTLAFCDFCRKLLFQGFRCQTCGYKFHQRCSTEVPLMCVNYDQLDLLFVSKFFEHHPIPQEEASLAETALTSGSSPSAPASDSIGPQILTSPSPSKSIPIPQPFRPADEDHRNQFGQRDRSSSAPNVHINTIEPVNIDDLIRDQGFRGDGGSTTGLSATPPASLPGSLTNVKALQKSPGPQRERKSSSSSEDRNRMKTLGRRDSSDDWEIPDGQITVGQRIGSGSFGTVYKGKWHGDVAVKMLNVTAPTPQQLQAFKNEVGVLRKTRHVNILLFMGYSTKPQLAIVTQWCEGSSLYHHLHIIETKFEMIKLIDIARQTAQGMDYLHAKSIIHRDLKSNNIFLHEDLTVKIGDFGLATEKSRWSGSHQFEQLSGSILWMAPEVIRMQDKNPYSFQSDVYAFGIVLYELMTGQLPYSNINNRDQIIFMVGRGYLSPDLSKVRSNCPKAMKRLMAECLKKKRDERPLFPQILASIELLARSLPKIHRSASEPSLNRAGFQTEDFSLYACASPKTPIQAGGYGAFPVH

Chain of Serine/threonine-protein kinase B-raf (Homo sapiens, UniProt P15056) (P15056 whole entry, the tested form may be a part): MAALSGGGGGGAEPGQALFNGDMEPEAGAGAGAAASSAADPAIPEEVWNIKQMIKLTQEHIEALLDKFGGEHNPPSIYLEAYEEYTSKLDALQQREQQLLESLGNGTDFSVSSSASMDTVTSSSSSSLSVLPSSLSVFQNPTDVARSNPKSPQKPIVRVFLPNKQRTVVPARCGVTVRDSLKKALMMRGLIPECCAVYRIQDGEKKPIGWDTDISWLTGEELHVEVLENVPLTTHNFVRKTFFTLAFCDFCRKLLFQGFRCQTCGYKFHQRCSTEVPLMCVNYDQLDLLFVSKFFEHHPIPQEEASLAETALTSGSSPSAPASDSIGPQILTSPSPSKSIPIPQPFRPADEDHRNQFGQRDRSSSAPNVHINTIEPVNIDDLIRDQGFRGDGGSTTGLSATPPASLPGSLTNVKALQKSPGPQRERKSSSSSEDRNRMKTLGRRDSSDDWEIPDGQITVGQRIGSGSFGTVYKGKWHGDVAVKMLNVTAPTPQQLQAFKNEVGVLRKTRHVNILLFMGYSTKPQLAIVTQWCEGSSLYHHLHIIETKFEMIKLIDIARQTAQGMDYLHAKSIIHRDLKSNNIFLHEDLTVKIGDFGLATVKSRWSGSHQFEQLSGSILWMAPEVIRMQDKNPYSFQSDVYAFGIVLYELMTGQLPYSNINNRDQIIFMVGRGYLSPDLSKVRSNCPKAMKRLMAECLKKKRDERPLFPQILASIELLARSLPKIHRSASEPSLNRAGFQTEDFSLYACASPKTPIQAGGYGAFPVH
Chain of Homeodomain-interacting protein kinase 2 (Q9H2X6 whole entry, the tested form may be a part): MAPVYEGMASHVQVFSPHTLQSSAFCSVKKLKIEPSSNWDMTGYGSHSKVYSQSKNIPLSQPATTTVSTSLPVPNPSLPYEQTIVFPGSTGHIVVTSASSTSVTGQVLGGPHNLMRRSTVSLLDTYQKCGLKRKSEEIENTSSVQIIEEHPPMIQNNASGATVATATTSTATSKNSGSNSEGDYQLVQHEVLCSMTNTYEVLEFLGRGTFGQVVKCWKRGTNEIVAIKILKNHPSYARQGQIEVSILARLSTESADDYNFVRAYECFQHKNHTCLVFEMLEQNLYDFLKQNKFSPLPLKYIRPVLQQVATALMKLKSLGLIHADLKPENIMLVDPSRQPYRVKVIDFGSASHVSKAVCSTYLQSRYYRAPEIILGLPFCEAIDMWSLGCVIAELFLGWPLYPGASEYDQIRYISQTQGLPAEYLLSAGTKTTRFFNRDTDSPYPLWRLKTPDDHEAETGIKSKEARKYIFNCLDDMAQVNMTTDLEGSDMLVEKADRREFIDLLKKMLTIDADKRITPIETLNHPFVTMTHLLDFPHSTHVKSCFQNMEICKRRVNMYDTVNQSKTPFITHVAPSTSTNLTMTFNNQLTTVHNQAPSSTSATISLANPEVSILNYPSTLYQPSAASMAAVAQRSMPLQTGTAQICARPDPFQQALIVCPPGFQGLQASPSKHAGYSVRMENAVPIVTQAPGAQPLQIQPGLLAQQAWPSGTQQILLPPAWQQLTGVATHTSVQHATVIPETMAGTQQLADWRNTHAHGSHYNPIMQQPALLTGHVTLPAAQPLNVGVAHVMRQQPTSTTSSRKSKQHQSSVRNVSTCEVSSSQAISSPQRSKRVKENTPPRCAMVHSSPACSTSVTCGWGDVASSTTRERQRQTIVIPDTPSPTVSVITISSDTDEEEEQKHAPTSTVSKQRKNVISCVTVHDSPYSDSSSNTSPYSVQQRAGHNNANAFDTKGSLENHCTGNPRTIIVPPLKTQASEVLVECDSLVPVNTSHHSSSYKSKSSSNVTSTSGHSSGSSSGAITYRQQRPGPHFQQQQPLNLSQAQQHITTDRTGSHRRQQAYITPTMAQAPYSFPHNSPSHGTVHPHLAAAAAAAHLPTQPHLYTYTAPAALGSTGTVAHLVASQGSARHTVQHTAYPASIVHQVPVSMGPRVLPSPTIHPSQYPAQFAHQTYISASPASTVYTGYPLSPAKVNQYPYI

IC50 (Pirin) [nM]	Structure (SMILES)	also measured
> 10000	CC(C)(C)c1nc(-c2cccc(NS(=O)(=O)c3c(F)cccc3F)c2F)c(-c2ccnc(N)n2)s1 [DABRAFENIB]	
> 10000	Cn1c(Nc2ccc(C(F)(F)F)cc2)nc2cc(Oc3ccnc(-c4ncc(C(F)(F)F)[nH]4)c3)ccc21 [RAF-265]	
33	CC(C)(C)N1CCN(Cc2ccc3cc(C(=O)Nc4cc(NC(=O)c5ccc6c(c5)OCCO6)ccc4Cl)ccc3n2)CC1	IC50 [1]: > 10000 nM
	c1cnc2ncn(-c3cc(Nc4ccc(OCCN5CCCCC5)cn4)ncn3)c2c1	IC50 [2]: 30 nM; IC50 [3]: 490 nM
> 10000	OCCn1cc(-c2ccc3c(c2)CC/C3=N\O)c(-c2ccncc2)n1	
670	CCCS(=O)(=O)Nc1ccc(F)c(C(=O)c2c[nH]c3ncc(Cl)cc23)c1F [PLX-4720]	
> 10000	Cc1ccc(NC(=O)c2cccc(C(C)(C)C#N)c2)cc1Nc1ccc2ncn(C)c(=O)c2c1	

Structure (SMILES)	IC50 (Pirin) [nM]	also measured
N#Cc1c(Oc2ccc(F)c(NC(=O)Cc3cccc(C(F)(F)F)c3)c2)ccc2nc(NC(=O)C3CC3)sc12	> 10000	IC50 [4]: 2 nM; IC50 [1]: 8 nM
